Data reported in patent US20250262241A1, “METHODS TO IMPROVE STABILITY OF VIRUS TRANSDUCTION OF y8 T CELLS AND APPLICATIONS THEREOF” (UNICET BIOTECH CO. LLC., priority 2021, published 2025).

Assays:
[1] = biological target: T1, IKKε (Homo sapiens, UniProt Q14164); conditions: cited from earlier work
T1 sequence (Q14164 1-716): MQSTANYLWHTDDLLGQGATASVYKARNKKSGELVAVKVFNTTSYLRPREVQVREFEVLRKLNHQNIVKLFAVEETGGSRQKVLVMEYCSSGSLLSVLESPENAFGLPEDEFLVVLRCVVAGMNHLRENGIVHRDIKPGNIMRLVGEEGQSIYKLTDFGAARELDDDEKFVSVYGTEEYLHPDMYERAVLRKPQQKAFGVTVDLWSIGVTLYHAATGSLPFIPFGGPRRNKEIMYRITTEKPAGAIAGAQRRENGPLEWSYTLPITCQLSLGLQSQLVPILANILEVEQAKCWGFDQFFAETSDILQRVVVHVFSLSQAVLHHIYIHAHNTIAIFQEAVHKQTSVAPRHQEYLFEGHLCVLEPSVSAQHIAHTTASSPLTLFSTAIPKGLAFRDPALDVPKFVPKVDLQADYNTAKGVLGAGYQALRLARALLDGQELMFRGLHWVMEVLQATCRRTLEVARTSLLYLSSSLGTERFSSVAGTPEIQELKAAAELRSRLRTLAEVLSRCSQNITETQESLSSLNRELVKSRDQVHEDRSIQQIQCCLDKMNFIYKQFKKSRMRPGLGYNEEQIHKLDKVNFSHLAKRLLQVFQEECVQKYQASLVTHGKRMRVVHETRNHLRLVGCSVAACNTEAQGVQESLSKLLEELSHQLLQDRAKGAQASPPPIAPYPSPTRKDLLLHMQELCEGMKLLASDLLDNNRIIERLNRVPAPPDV

[2] = system: γδ2 T cells; assay type: cell-based, human; conditions: 0.6 uM
Protocol: The plates were incubated at 37° C., 5% CO2.

[3] = biological target: T2, TBK1 (Homo sapiens, UniProt Q9UHD2); conditions: cited from earlier work
T2 sequence (Q9UHD2 1-729): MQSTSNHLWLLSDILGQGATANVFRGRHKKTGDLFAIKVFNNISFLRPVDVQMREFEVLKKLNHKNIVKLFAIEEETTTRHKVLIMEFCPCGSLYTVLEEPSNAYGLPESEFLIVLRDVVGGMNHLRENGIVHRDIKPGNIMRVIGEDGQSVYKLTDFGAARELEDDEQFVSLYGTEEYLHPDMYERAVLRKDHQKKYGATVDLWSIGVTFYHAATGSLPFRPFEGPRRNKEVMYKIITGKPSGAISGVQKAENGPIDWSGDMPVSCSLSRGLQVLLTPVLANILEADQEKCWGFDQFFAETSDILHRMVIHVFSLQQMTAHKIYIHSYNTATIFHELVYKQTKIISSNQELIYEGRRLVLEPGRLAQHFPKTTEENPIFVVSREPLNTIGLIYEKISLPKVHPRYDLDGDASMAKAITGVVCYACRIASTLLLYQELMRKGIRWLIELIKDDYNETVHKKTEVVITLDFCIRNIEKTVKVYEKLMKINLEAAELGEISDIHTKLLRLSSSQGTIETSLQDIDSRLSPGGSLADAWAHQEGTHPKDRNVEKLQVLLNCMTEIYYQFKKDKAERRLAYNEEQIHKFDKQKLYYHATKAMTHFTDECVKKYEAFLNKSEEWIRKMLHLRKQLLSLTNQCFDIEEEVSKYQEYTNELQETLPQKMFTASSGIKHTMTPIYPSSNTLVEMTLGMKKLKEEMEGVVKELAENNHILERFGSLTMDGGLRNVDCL

BX795
IC50 [1]: 0.041 µM | cell growth of γδ2 T [2]: did not influence the cell growth | IC50 [3]: 0.006 µM
